# Laboratory results from patent publication US9422297B2, “Tricyclic compounds having cytostatic and/or cytotoxic activity and methods of use thereof” (Duquesne University of the Holy Ghost, priority 2007, dated 2016).
# How the values were obtained:
# SR = experiment: NCI In-Vitro Testing, Leukemia; assay type: cell-based
# MCF7 = experiment: NCI In-Vitro Testing, Breast Cancer; assay type: cell-based
# 60 tumor cell line panel = experiment: NCI 60 preclinical in vitro tumor screening panel; conditions: read-out: GI50 across tumor panel
# HS 576T = experiment: NCI In-Vitro Testing, Breast Cancer; assay type: cell-based
# A431 cytotoxicity assay = assay type: cell-based; conditions: human, A431 cells; Table 3
# NCI-H522 = experiment: NCI In-Vitro Testing, Non-Small Cell Lung Cancer; assay type: cell-based
# HOP-92 = experiment: NCI In-Vitro Testing, Non-Small Cell Lung Cancer; assay type: cell-based
# SK-MEL-23 = experiment: NCI In-Vitro Testing, Melanoma; assay type: cell-based
# NCI-H226 = experiment: NCI In-Vitro Testing, Non-Small Cell Lung Cancer; assay type: cell-based
# MDA-MB-231/ATCC = experiment: NCI In-Vitro Testing, Breast Cancer; assay type: cell-based
# OCRF-CEM = experiment: NCI In-Vitro Testing, Leukemia; assay type: cell-based
# COLO 205 = experiment: NCI In-Vitro Testing, Colon Cancer; assay type: cell-based
# IGROV1 = experiment: NCI In-Vitro Testing, Ovarian Cancer; assay type: cell-based
# NCI-H23 = experiment: NCI In-Vitro Testing, Non-Small Cell Lung Cancer; assay type: cell-based
# 785-0 = experiment: NCI In-Vitro Testing, Renal Cancer; assay type: cell-based
# PC-3 = experiment: NCI In-Vitro Testing, Prostate Cancer; assay type: cell-based
# SNB-75 = experiment: NCI In-Vitro Testing, CNS Cancer; assay type: cell-based
# HT29 = experiment: NCI In-Vitro Testing, Colon Cancer; assay type: cell-based
# MOLT-4 = experiment: NCI In-Vitro Testing, Leukemia; assay type: cell-based
compound,measurement,setting,value
Nc1nc2c(c(Nc3ccc(Cl)cc3)n1)-c1ccccc1C2 [AAG145-136],GI50,SR,4.84E−8 Molar
same,LC50,SR,>1.00E−4 Molar
same,TGI,SR,>1.00E−4 Molar
same,Percent Growth,SR; Log10 Concentration −4.0 Molar,2%
same,Percent Growth,SR; Log10 Concentration −5.0 Molar,12%
same,Percent Growth,SR; Log10 Concentration −6.0 Molar,22%
same,Percent Growth,SR; Log10 Concentration −7.0 Molar,41%
same,Percent Growth,SR; Log10 Concentration −8.0 Molar,70%
same,GI50,MCF7,7.34E−8 Molar
same,LC50,MCF7,>1.00E−4 Molar
same,TGI,MCF7,1.41E−5 Molar
same,Percent Growth,MCF7; Log10 Concentration −4.0 Molar,−26%
same,Percent Growth,MCF7; Log10 Concentration −5.0 Molar,5%
same,Percent Growth,MCF7; Log10 Concentration −6.0 Molar,17%
same,Percent Growth,MCF7; Log10 Concentration −7.0 Molar,45%
same,Percent Growth,MCF7; Log10 Concentration −8.0 Molar,63%
same,GI50,60 tumor cell line panel,0.0312 to 1 µM
same,GI50,HS 576T,2.22E−6 Molar
same,LC50,HS 576T,>1.00E−4 Molar
same,TGI,HS 576T,2.94E−5 Molar
same,Percent Growth,HS 576T; Log10 Concentration −4.0 Molar,−13%
same,Percent Growth,HS 576T; Log10 Concentration −5.0 Molar,11%
same,Percent Growth,HS 576T; Log10 Concentration −6.0 Molar,71%
same,Percent Growth,HS 576T; Log10 Concentration −7.0 Molar,97%
same,Percent Growth,HS 576T; Log10 Concentration −8.0 Molar,104%
same,IC50,A431 cytotoxicity assay,9.7 µM
same,GI50,NCI-H522,6.22E−7 Molar
same,LC50,NCI-H522,>1.00E−4 Molar
same,TGI,NCI-H522,3.88E−5 Molar
same,Percent Growth,NCI-H522; Log10 Concentration −4.0 Molar,−10%
same,Percent Growth,NCI-H522; Log10 Concentration −5.0 Molar,14%
same,Percent Growth,NCI-H522; Log10 Concentration −6.0 Molar,40%
same,Percent Growth,NCI-H522; Log10 Concentration −7.0 Molar,89%
same,Percent Growth,NCI-H522; Log10 Concentration −8.0 Molar,96%
same,GI50,HOP-92,1.81E−5 Molar
same,LC50,HOP-92,>1.00E−4 Molar
same,TGI,HOP-92,>1.00E−4 Molar
same,Percent Growth,HOP-92; Log10 Concentration −4.0 Molar,15%
same,Percent Growth,HOP-92; Log10 Concentration −5.0 Molar,62%
same,Percent Growth,HOP-92; Log10 Concentration −6.0 Molar,74%
same,Percent Growth,HOP-92; Log10 Concentration −7.0 Molar,96%
same,Percent Growth,HOP-92; Log10 Concentration −8.0 Molar,100%
same,GI50,SK-MEL-23,1.51E−8 Molar
same,LC50,SK-MEL-23,>1.00E−4 Molar
same,TGI,SK-MEL-23,>1.00E−4 Molar
same,Percent Growth,SK-MEL-23; Log10 Concentration −4.0 Molar,41%
same,Percent Growth,SK-MEL-23; Log10 Concentration −5.0 Molar,32%
same,Percent Growth,SK-MEL-23; Log10 Concentration −6.0 Molar,54%
same,Percent Growth,SK-MEL-23; Log10 Concentration −7.0 Molar,97%
same,Percent Growth,SK-MEL-23; Log10 Concentration −8.0 Molar,105%
same,GI50,NCI-H226,2.14E−6 Molar
same,LC50,NCI-H226,>1.00E−4 Molar
same,TGI,NCI-H226,>1.00E−4 Molar
same,Percent Growth,NCI-H226; Log10 Concentration −4.0 Molar,14%
same,Percent Growth,NCI-H226; Log10 Concentration −5.0 Molar,36%
same,Percent Growth,NCI-H226; Log10 Concentration −6.0 Molar,57%
same,Percent Growth,NCI-H226; Log10 Concentration −7.0 Molar,97%
same,Percent Growth,NCI-H226; Log10 Concentration −8.0 Molar,98%
same,GI50,MDA-MB-231/ATCC,6.41E−7 Molar
same,LC50,MDA-MB-231/ATCC,>1.00E−4 Molar
same,TGI,MDA-MB-231/ATCC,>1.00E−4 Molar
same,Percent Growth,MDA-MB-231/ATCC; Log10 Concentration −4.0 Molar,30%
same,Percent Growth,MDA-MB-231/ATCC; Log10 Concentration −5.0 Molar,29%
same,Percent Growth,MDA-MB-231/ATCC; Log10 Concentration −6.0 Molar,45%
same,Percent Growth,MDA-MB-231/ATCC; Log10 Concentration −7.0 Molar,70%
same,Percent Growth,MDA-MB-231/ATCC; Log10 Concentration −8.0 Molar,92%
same,GI50,OCRF-CEM,3.12E−6 Molar
same,LC50,OCRF-CEM,>1.00E−4 Molar
same,TGI,OCRF-CEM,>1.00E−4 Molar
same,Percent Growth,OCRF-CEM; Log10 Concentration −4.0 Molar,11%
same,Percent Growth,OCRF-CEM; Log10 Concentration −5.0 Molar,6%
same,Percent Growth,OCRF-CEM; Log10 Concentration −6.0 Molar,8%
same,Percent Growth,OCRF-CEM; Log10 Concentration −7.0 Molar,22%
same,Percent Growth,OCRF-CEM; Log10 Concentration −8.0 Molar,77%
same,GI50,COLO 205,6.38E−7 Molar
same,LC50,COLO 205,>1.00E−4 Molar
same,TGI,COLO 205,>1.00E−4 Molar
same,Percent Growth,COLO 205; Log10 Concentration −4.0 Molar,11%
same,Percent Growth,COLO 205; Log10 Concentration −5.0 Molar,11%
same,Percent Growth,COLO 205; Log10 Concentration −6.0 Molar,41%
same,Percent Growth,COLO 205; Log10 Concentration −7.0 Molar,86%
same,Percent Growth,COLO 205; Log10 Concentration −8.0 Molar,99%
same,GI50,IGROV1,2.87E−7 Molar
same,LC50,IGROV1,>1.00E−4 Molar
same,TGI,IGROV1,>1.00E−4 Molar
same,Percent Growth,IGROV1; Log10 Concentration −4.0 Molar,11%
same,Percent Growth,IGROV1; Log10 Concentration −5.0 Molar,6%
same,Percent Growth,IGROV1; Log10 Concentration −6.0 Molar,24%
same,Percent Growth,IGROV1; Log10 Concentration −7.0 Molar,72%
same,Percent Growth,IGROV1; Log10 Concentration −8.0 Molar,93%
same,GI50,NCI-H23,5.55E−7 Molar
same,LC50,NCI-H23,>1.00E−4 Molar
same,TGI,NCI-H23,>1.00E−4 Molar
same,Percent Growth,NCI-H23; Log10 Concentration −4.0 Molar,16%
same,Percent Growth,NCI-H23; Log10 Concentration −5.0 Molar,21%
same,Percent Growth,NCI-H23; Log10 Concentration −6.0 Molar,37%
same,Percent Growth,NCI-H23; Log10 Concentration −7.0 Molar,90%
same,Percent Growth,NCI-H23; Log10 Concentration −8.0 Molar,86%
same,GI50,785-0,5.14E−7 Molar
same,LC50,785-0,>1.00E−4 Molar
same,TGI,785-0,>1.00E−4 Molar
same,Percent Growth,785-0; Log10 Concentration −4.0 Molar,16%
same,Percent Growth,785-0; Log10 Concentration −5.0 Molar,26%
same,Percent Growth,785-0; Log10 Concentration −6.0 Molar,31%
same,Percent Growth,785-0; Log10 Concentration −7.0 Molar,97%
same,Percent Growth,785-0; Log10 Concentration −8.0 Molar,102%
same,GI50,PC-3,7.15E−7 Molar
same,LC50,PC-3,>1.00E−4 Molar
same,TGI,PC-3,7.99E−5 Molar
same,Percent Growth,PC-3; Log10 Concentration −4.0 Molar,−2%
same,Percent Growth,PC-3; Log10 Concentration −5.0 Molar,18%
same,Percent Growth,PC-3; Log10 Concentration −6.0 Molar,40%
same,Percent Growth,PC-3; Log10 Concentration −7.0 Molar,111%
same,Percent Growth,PC-3; Log10 Concentration −8.0 Molar,104%
same,GI50,SNB-75,5.03E−6 Molar
same,LC50,SNB-75,>1.00E−4 Molar
same,TGI,SNB-75,6.44E−5 Molar
same,Percent Growth,SNB-75; Log10 Concentration −4.0 Molar,−10%
same,Percent Growth,SNB-75; Log10 Concentration −5.0 Molar,41%
same,Percent Growth,SNB-75; Log10 Concentration −6.0 Molar,71%
same,Percent Growth,SNB-75; Log10 Concentration −7.0 Molar,92%
same,Percent Growth,SNB-75; Log10 Concentration −8.0 Molar,95%
same,GI50,HT29,9.39E−8 Molar
same,LC50,HT29,>1.00E−4 Molar
same,TGI,HT29,>1.00E−4 Molar
same,Percent Growth,HT29; Log10 Concentration −4.0 Molar,2%
same,Percent Growth,HT29; Log10 Concentration −5.0 Molar,7%
same,Percent Growth,HT29; Log10 Concentration −6.0 Molar,21%
same,Percent Growth,HT29; Log10 Concentration −7.0 Molar,49%
same,Percent Growth,HT29; Log10 Concentration −8.0 Molar,94%
same,GI50,MOLT-4,6.61E−8 Molar
same,LC50,MOLT-4,>1.00E−4 Molar
same,TGI,MOLT-4,>1.00E−4 Molar
same,Percent Growth,MOLT-4; Log10 Concentration −4.0 Molar,21%
same,Percent Growth,MOLT-4; Log10 Concentration −5.0 Molar,11%
same,Percent Growth,MOLT-4; Log10 Concentration −6.0 Molar,14%
same,Percent Growth,MOLT-4; Log10 Concentration −7.0 Molar,39%
same,Percent Growth,MOLT-4; Log10 Concentration −8.0 Molar,99%
